Reference: patent US9617253B2, “Molecules having pesticidal utility, and intermediates, compositions, and processes, related thereto” (Dow AgroSciences LLC, priority 2015, dated 2017)

Legend:
Assay type in all cases: in vivo
[1] = tested on: Beet Armyworm (Spodoptera exigua, LAPHEG); experiment: Bioassay on Beet Armyworm (BAW), 128-well diet tray assay; details: 168 h, second instar BAW larvae, 50 μg/cm^2 on artificial diet, 25° C., five to seven days, average of eight wells, read-out: BAW % Control (or Mortality) rating
Experimental: (§1) Certain molecules disclosed in this document were tested against BAW and CL using procedures described in the following examples. In the reporting of the results, the “BAW & CL Rating Table” was used (See Table Section).
Bioassays on BAW were conducted using a 128-well diet tray assay. One to five second instar BAW larvae were placed in each well (3 mL) of the diet tray that had been previously filled with 1 mL of artificial diet to which 50 μg/cm^2 of the test molecule (dissolved in 50 μL of 90:10 acetone-water mixture) had been applied (to each of eight wells) and then allowed to dry. Trays were covered with a clear self-adhesive cover, vented to allow gas exchange, and held at 25° C., 14:10 light-dark for five to seven days. Percent mortality was recorded for the larvae in each well; activity in the eight wells was then averaged. The results are indicated in the table entitled “Table ABC: Biological Results” (See Table Section).

[2] = tested on: Cabbage Looper (Trichoplusia ni, TRIPNI); experiment: Bioassay on Cabbage Looper (CL), 128-well diet tray assay; details: 168 h, second instar CL larvae, 50 μg/cm^2 on artificial diet, 25° C., five to seven days, average of eight wells, read-out: CL % Control (or Mortality) rating
Experimental: as §1
Bioassays on CL were conducted using a 128-well diet tray assay. One to five second instar CL larvae were placed in each well (3 mL) of the diet tray that had been previously filled with 1 mL of artificial diet to which 50 μg/cm^2 of the test molecule (dissolved in 50 μL of 90:10 acetone-water mixture) had been applied (to each of eight wells) and then allowed to dry. Trays were covered with a clear self-adhesive cover, vented to allow gas exchange, and held at 25° C., 14:10 light-dark for five to seven days. Percent mortality was recorded for the larvae in each well; activity in the eight wells was then averaged. The results are indicated in the table entitled “Table ABC: Biological Results” (See Table Section).

[3] = tested on: Yellow Fever Mosquito (Aedes aegypti, AEDSAE); details: about 1 day-old larvae, from 4000 ppm DMSO master plate, room temperature, scored after 3 days
Experimental: Certain molecules disclosed in this document were tested against YFM using procedures described in the following paragraph. In the reporting of the results, the “YFM Rating Table” was used (See Table Section).
Master plates containing 400 μg of a molecule dissolved in 100 μL of dimethyl sulfoxide (DMSO) (equivalent to a 4000 ppm solution) are used. A master plate of assembled molecules contains 15 μL per well. To this plate, 135 μL of a 90:10 water/acetone mixture is added to each well. A robot (Biomek® NXP Laboratory Automation Workstation) is programmed to dispense 15 μL aspirations from the master plate into an empty 96-well shallow plate (“daughter” plate). There are 6 reps (“daughter” plates) created per master. The created “daughter” plates are then immediately infested with YFM larvae.
The day before plates are to be treated, mosquito eggs are placed in Millipore water containing liver powder to begin hatching (4 g into 400 mL). After the “daughter” plates are created using the robot, they are infested with 220 μL of the liver powder/larval mosquito mixture (about 1 day-old larvae). After plates are infested with mosquito larvae, a non-evaporative lid is used to cover the plate to reduce drying. Plates are held at room temperature for 3 days prior to grading. After 3 days, each well is observed and scored based on mortality. The results are indicated in the table entitled “Table ABC: Biological Results” (See Table Section).

| SMILES | mortality at 50 µg/cm2 [1] | mortality at 50 µg/cm2 [2] | YFM % Control (or Mortality) rating [3] |
| --- | --- | --- | --- |
| CCCc1ccc(C)cc1N1C(=O)CS/C1=N\C(=O)Nc1ccc(COc2ncn(-c3ccc(OC(F)(F)F)cc3)n2)cc1 [F5, (Z)-1-(3-(5-Methyl-2-propylphenyl)-4-oxothiazolidin-2-ylidene)-3-(4-(((1-(4-(trifluoromethoxy)phenyl)-1H-1,2,4-triazol-3-yl)oxy)methyl)phenyl)urea] | 50 to 100% | 50 to 100% | A (80-100) |
| Cc1ccc(C(C)C)c(N2C(=O)CS/C2=N\C(=O)Nc2cc(F)c(OCc3ncn(-c4ccc(OC(F)(F)F)cc4)n3)c(F)c2)c1 [F41, (Z)-1-(3,5-Difluoro-4-((1-(4-(trifluoromethoxy)phenyl)-1H-1,2,4-triazol-3-yl)methoxy)phenyl)-3-(3-(2-isopropyl-5-methylphenyl)-4-oxothiazolidin-2-ylidene)urea] | 50 to 100% | 50 to 100% | A (80-100) |
| COCc1ccc(C)cc1N1C(=O)CS/C1=N\C(=O)Nc1ccc(COc2ncn(-c3ccc(OC(F)(F)F)cc3)n2)cc1 [F8, (Z)-1-(3-(2-(Methoxymethyl)-5-methylphenyl)-4-oxothiazolidin-2-ylidene)-3-(4-(((1-(4-(trifluoromethoxy)phenyl)-1H-1,2,4-triazol-3-yl)oxy)methyl)phenyl)urea] | 50 to 100% | 50 to 100% | A (80-100) |
| COCc1ccc(C)cc1N1C(=O)CS/C1=N\C(=O)Nc1ccc(COc2ncn(-c3ccc(OC(F)(F)F)cc3)n2)c(F)c1 [F9, (Z)-1-(3-Fluoro-4-(((1-(4-(trifluoromethoxy)phenyl)-1H-1,2,4-triazol-3-yl)oxy)methyl)phenyl)-3-(3-(2-(methoxymethyl)-5-methylphenyl)-4-oxothiazolidin-2-ylidene)urea] | 50 to 100% | 50 to 100% | A (80-100) |
| CCCc1ccc(C)cc1N1C(=O)CS/C1=N\C(=O)Nc1ccc(OCc2ncn(-c3ccc(OC(F)(F)F)cc3)n2)cc1 [F17, (Z)-1-(3-(5-Methyl-2-propylphenyl)-4-oxothiazolidin-2-ylidene)-3-(4-((1-(4-(trifluoromethoxy)phenyl)-1H-1,2,4-triazol-3-yl)methoxy)phenyl)urea] | 50 to 100% | 50 to 100% | A (80-100) |
